Data as given in article PMC10800100, “DoAP2/ERF89 activated the terpene synthase gene DoPAES in Dendrobium officinale and participated in the synthesis of β-patchoulene” (PeerJ, 2024).

Target: T1, DoPAES (Dendrobium catenatum, UniProt A0A975TQG2)
T1 sequence (A0A975TQG2 1-550): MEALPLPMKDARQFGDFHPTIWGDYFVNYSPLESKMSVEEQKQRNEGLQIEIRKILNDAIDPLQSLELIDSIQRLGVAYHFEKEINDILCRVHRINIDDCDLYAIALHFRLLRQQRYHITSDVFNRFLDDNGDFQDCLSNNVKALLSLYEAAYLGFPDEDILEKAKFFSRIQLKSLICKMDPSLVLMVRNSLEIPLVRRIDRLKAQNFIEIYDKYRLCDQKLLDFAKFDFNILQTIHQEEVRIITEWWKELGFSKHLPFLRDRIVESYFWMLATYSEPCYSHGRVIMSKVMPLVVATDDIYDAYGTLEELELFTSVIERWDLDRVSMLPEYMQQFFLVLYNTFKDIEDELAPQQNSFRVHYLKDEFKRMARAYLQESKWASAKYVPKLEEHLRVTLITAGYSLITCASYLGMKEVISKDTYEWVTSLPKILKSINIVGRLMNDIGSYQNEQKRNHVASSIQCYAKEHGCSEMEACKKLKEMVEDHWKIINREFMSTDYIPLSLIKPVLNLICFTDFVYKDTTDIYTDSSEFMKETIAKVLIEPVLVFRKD
Assay: HS-SPME-GC-MS of products formed by crude recombinant protein
Assay type: biochemical
Conditions: 50 mmol/L Tris pH 7.5, 10 mmol/L MgCl2, 10 μmol/L MnCl2, 30 °C, 30 min

`CC(C)=CCC/C(C)=C/CC/C(C)=C/COP(=O)(O)OP(=O)(O)O` [FPP] was tested. Which “HS-SPME-GC-MS of products formed by crude recombinant protein” value did it give?
Its value is “The products were then detected by GC-MS after adding substrate FPP”.
